Experimental data as given in US20030133923A1, “Composition for preventing the formation and enhancing the breakdown of bezoars in animals and humans” (priority 2001, published 2003).

Assay: In vitro breakdown of a feline hairball under simulated stomach conditions (pH 3.0, 100° F., 24 hours)
Details: for % enhanced break down: versus 0% Tween-80; for Hair clump wt: hairball 1.0-1.1 g
Experimental: Tween 80 (lot#1373A, Uniqema, Wilmington, Del.) was dissolved in 150 ml acidified water (pH 3.0) at a concentration of 0%, 5%, 10%, 15%, and 20%. A feline hairball (1.0-1.1 g) was then added to each of the five solutions. The mixtures were incubated at 100° F. for 24 hours. After incubation, hair lumps (defined as hair not floating free in the liquid) was removed and the liquid was strained through cheesecloth. Free hair and hair lumps were then dried and weighed.

## CCCCCCCC/C=C\CCCCCCCC(=O)OCCOCC(OCCO)C1OCC(OCCO)C1OCCO (centres unmarked) [Tween-80]
5% Tween-80, pH 3.0, 100° F.
  Free hair wt: 0.1606 g
  Free hair wt (% total wt): 20.38%
  Hair clump wt (% total wt): 79.62%
  % enhanced break down: 5%
5% Tween-80 in 150 ml acidified water pH 3.0, 100° F.
  Hair clump wt: 0.6273 g
10% Tween-80, pH 3.0, 100° F.
  Free hair wt: 0.2576 g
  Free hair wt (% total wt): 53.78%
  Hair clump wt (% total wt): 46.22%
  % enhanced break down: 35%
10% Tween-80 in 150 ml acidified water pH 3.0, 100° F.
  Hair clump wt: 0.2214 g
15% Tween-80, pH 3.0, 100° F.
  Free hair wt: 0.1980 g
  Free hair wt (% total wt): 47.86%
  Hair clump wt (% total wt): 52.14%
  % enhanced break down: 35%
15% Tween-80 in 150 ml acidified water pH 3.0, 100° F.
  Hair clump wt: 0.2157 g
20% Tween-80, pH 3.0, 100° F.
  Free hair wt: 0.2480 g
  Free hair wt (% total wt): 51.99%
  Hair clump wt (% total wt): 48.00%
  % enhanced break down: 35%
20% Tween-80 in 150 ml acidified water pH 3.0, 100° F.
  Hair clump wt: 0.2290 g
